In patent publication US20200038418A1, “METHODS OF TREATING AUTISM SPECTRUM DISORDER USING AMINOSTEROL COMPOSITIONS” (Enterin, Inc., priority 2018, published 2020):

What was measured:
[1] = Phase 2 trial Stage 1, adverse events; assay type: in vivo, human; conditions: Stage 1 (10 dosed), single oral doses
Description: Tolerability limits included diarrhea or vomiting.

[2] = test system: patients with PD and constipation; experiment: Stage 2 CNS symptoms (UPDRS, MMSE, PDHQ, BDI-II); assay type: in vivo, human; conditions: for UPDRS Part 1 (NMS) (Mean, SD) / BDI-II (Mean, SD) / PDHQ (Mean, SD): n = 34; for hallucinations and delusions improved or disappeared: during treatment, patients with hallucinations or delusions at baseline
Description: (9) Unified Parkinson's Disease Rating Scale (UPDRS), which consists of 42 items in four subscales (Part I=Non-Motor Aspects of Experiences of Daily Living (nM-EDL) (1.1 cognitive impairment, 1.2 hallucinations and psychosis, 1.3 depressed mood, Part II=Motor Aspects of Experiences of Daily Living (M-EDL), Part III=Motor Examination, and Part IV=Motor Complications;
Exploratory end-points, in addition to constipation, included for example, (i) depression assessed using the Beck Depression Inventory (BDI-II) (Steer et al. 2000) and Unified Parkinson's Disease Rating Scale (UPDRS); (ii) cognition assessed using the Mini Mental State Examination (MMSE) (Palsteia et al., 2018), Unified Parkinson's Disease Rating Scale (UPDRS), and Trail Making Test (TMT); (iii) sleep and REM-behavior disorder (RBD) using a daily sleep diary, I-Button Temperature Assessment, a REM sleep behavior disorder (RBD) questionnaire (RBDQ) (Stiasny-Kolster et al. 2007), and the UPDRS; (iv) hallucinations assessed using the PD hallucinations questionnaire (PDHQ) (Papapetropoulos et al. 2008), the UPDRS, and direct questioning; (v) fatigue using the Parkinson's Disease Fatigue Scale (PFS-16) and the UPDRS; (vi) motor functions using the UPDRS; and (vii) non-motor functions using the UPDRS.
(§1) Assessments were made at baseline and at the end of the fixed dose and washout periods. Circadian system status was evaluated by continuously monitoring wrist skin temperature (Thermochron iButton DS1921H; Maxim, Dallas) following published procedures (Sarabia et al. 2008).
An exploratory analysis was done with respect to the sleep data, the body temperature data, mood, fatigue, hallucinations, cognition and other motor and non-motor symptoms of PD. Continuous measurements within a subject were compared with a paired t-test and continuous measurements between subject groups were compared with a two-group t-test. Categorical data were compared with a chi-squared test or a Fisher's exact test if the expected cell counts are too small for a chi-squared test.

[3] = test system: patients with PD and constipation; experiment: Circadian rhythm of wrist skin temperature; assay type: in vivo, human
Experimental: (6) I-Button Temperature Assessment. The I-Button is a small, rugged self-sufficient system that measures temperature and records the results in a protected memory section. The Thermochron I-Button DS1921H (Maxim Integrated, Dallas, Tex.) was used for skin temperature measurement. I-Buttons were programmed to sample every 10 mins., and attached to a double-sided cotton sport wrist band using Velcro, with the sensor face of the I-Button placed over the inside of the wrist, on the radial artery of the dominant hand. Subjects removed and replaced the data logger when necessary (i.e., to have a bath or shower). The value of skin temperature assessment in sleep research is that the endogenous skin warming resulting from increased skin blood flow is functionally linked to sleep propensity. From the collected data, the mesor, amplitude, acrophase (time of peak temperature), Rayleight test (an index of interdaily stability), mean waveforms are calculated);
as §1
Circadian rhythm of skin temperature was evaluable in 12 patients (i.e., those who had recordings that extended from baseline through washout). Circadian system functionality was evaluated by continuously monitoring wrist skin temperature using a temperature sensor (Thermochron iButton DS1921H; Maxim, Dallas, Tex.) (Sarabia et al. 2008). A nonparametric analysis was performed for each participant to characterize DST as previously described (Sarabia et al. 2008; Ortiz-Tudela et al. 2010).
Briefly, this analysis includes the following parameters: (i) the inter-daily stability (the constancy of 24-hour rhythmic pattern over days, IS); (ii) intra-daily variability (rhythm fragmentation, IV); (iii) average of 10-minute intervals for the 10 hours with the minimum temperature (L10); (iv) average of 10-minute intervals for the 5 hours with the maximum temperature (M5) and the relative amplitude (RA), which was determined by the difference between M5 and L10, divided by the sum of both. Finally, the Circadian Function Index (CFI) was calculated by integrating IS, IV, and RA. Consequently, CFI is a global measure that oscillates between 0 for the absence of circadian rhythmicity and 1 for a robust circadian rhythm (Ortiz-Tudela et al., 2010).

[4] = target: αS (Homo sapiens, UniProt P37840); conditions: in vitro; cited from earlier work
[5] = Stage 2, fixed dose (during treatment)
[6] = Stage 2, fixed dose (during treatment), listed as Squalamine (ENT-01)
[7] = Stage 2, wash-out, listed as Squalamine (ENT-01)
[8] = fixed dose vs baseline, 12 patients

## CC(C)[C@@H](CC[C@@H](C)[C@H]1CC[C@H]2[C@@H]3[C@H](O)C[C@H]4C[C@@H](NCCCNCCCCN)CC[C@]4(C)[C@H]3CC[C@]12C)OS(=O)(=O)O (single isomer, unassigned) [squalamine (ENT-01), squalamine]
[1]
  Abdominal pain, Mild: 2(20) n, %
  Abdominal pain, Moderate: 3(30) n, %
  Blood in urine, Moderate: 0 n, %
  Diarrhea, Mild: 1(10) n, %
  Diarrhea, Moderate: 3(30) n, %
  Diarrhea, Severe: 0 n, %
  Difficulty falling asleep, Mild: 0 n, %
  Difficulty falling asleep, Moderate: 0 n, %
  Dizziness, Mild: 0 n, %
  Dizziness, Moderate: 0 n, %
  Eye infection, Mild: 0 n, %
  Eye infection, Moderate: 0 n, %
  Flatulence, Mild: 2(20) n, %
  Flatulence, Moderate: 0 n, %
  Headache, Mild: 1(10) n, %
  Headache, Moderate: 0 n, %
  Increased urinary frequency, Mild: 0 n, %
  Increased urinary frequency, Moderate: 0 n, %
  Loss of appetite, Moderate: 0 n, %
  Lower GI bleed, Severe: 0 n, %
  Nausea, Mild: 4(40) n, %
  Nausea, Moderate: 0 n, %
  Skin lesions-rash, Mild: 0 n, %
  Skin lesions-rash, Moderate: 0 n, %
  Urinary retention, Mild: 0 n, %
  Urinary retention, Moderate: 0 n, %
  Urinary tract infection, Mild: 0 n, %
  Urinary tract infection, Moderate: 0 n, %
  Vomiting, Mild: 1(10) n, %
  Vomiting, Moderate: 0 n, %
  Worsening acid reflux, Mild: 0 n, %
  Worsening acid reflux, Moderate: 0 n, %
  Worsening hemorrhoid, Mild: 0 n, %
  Worsening hemorrhoid, Moderate: 0 n, %
[1]; unrelated to ENT-01
  Blood in urine, Mild: 1(10) n, %
  Loss of appetite, Mild: 1(10) n, %
[2]; 1 patient
  time hallucinations and delusions did not return following discontinuation: 4 weeks
[2]; Stage 2, end of fixed dose
  UPDRS Part 1 (NMS) (Mean, SD): 10.6 (6.18))
[2]; Stage 2, end of wash-out
  UPDRS Part 1 (NMS) (Mean, SD): 9.5 (5.27)
[2]; Stage 2, end of wash-out, listed as aminosterol
  UPDRS Part 1 (NMS) (Mean, SD): 9.5
[2]; [5]
  BDI-II (Mean, SD): 9.9
  PDHQ (Mean, SD): 1.8
[2]; [6]
  BDI-II (Mean, SD): 9.9 (6.45)
  PDHQ (Mean, SD): 1.8 (3.34)
[2]; Stage 2, fixed dose (during treatment), listed as aminosterol
  BDI-II (Mean, SD): 9.9
[2]; Stage 2, wash-out
  BDI-II (Mean, SD): 8.7
  PDHQ (Mean, SD): 0.9
[2]; [7]
  BDI-II (Mean, SD): 8.7 (5.19)
  PDHQ (Mean, SD): 0.9 (2.33)
[2]; Stage 2, wash-out, listed as aminosterol
  BDI-II (Mean, SD): 8.7
[2]; another patient
  time hallucinations and delusions did not return following discontinuation: 2 weeks
[2]
  hallucinations and delusions improved or disappeared: 5 of 6
[2]; listed as ENT-01
  hallucinations and delusions improved or disappeared: five
[3]; [8]
  circadian function index (CFI): increasing
  relative amplitude (RA): increasing
  rhythm fragmentation (intra-daily variability, IV): reducing
  rhythm stability (inter-daily stability, IS): increasing
[3]; oral administration, 12 patients with evaluable data
  impact on the circadian rhythm of skin temperature: significant positive impact
[3]; wash-out period, 12 patients
  circadian function index (CFI): improvement persisted
  rhythm stability (IS): improvement persisted
[4]
  formation of aggregates of αS: inhibit the formation of aggregates of αS
